Species on record: Rattus norvegicus
Test: Open TG-GATES - Regimen: Daily Repeat
Assay type: toxicity, organism-based, Sprague-Dawley
Parameters: regimen Daily Repeat, gender Male, age 6 weeks
Settings: in vivo, po, 150 mg/kg, route gavage, dose level High; for APTT / Bas / Eos / Fbg / Hb / Ht / Lym / MCH / MCHC / MCV / Mono / Neu / PT / Plat / RBC / Ret / WBC: tissue Blood; for KIDNEY_L / KIDNEY_R / KIDNEY_TOTAL: tissue Kidney; for LIVER: tissue Liver; for A/G / ALP / ALT / AST / BUN / CRE / Ca / Cl / DBIL / GLC / IP / K / LDH / Na / PL / RALB / TBIL / TC / TG / TP / gamma-GTP: tissue Plasma

Work on `CC(C)C(=O)Nc1ccc([N+](=O)[O-])c(C(F)(F)F)c1` [FLUTAMIDE] yielded a TERMINAL_BW (72 h, time 3 day) of 205.8 g, an APTT (72 h, time 3 day) of 17.2 s and a Bas (72 h, time 3 day) of 0%. For the same compound, the Eos (72 h, time 3 day) was 0.8%, the Fbg (72 h, time 3 day) was 219 mg/dL and the Hb (72 h, time 3 day) was 14.3 g/dL. It also gave a Ht (72 h, time 3 day) of 43.1%, a Lym (72 h, time 3 day) of 87.4% and an MCH (72 h, time 3 day) of 21.2 pg. It also gave an MCHC (72 h, time 3 day) of 33.3%, an MCV (72 h, time 3 day) of 63.6 fL and a Mono (72 h, time 3 day) of 2.4%. The Neu (72 h, time 3 day) was 8.6%, the PT (72 h, time 3 day) was 12.6 s and the Plat (72 h, time 3 day) was 125 x10_4/uL. The RBC (72 h, time 3 day) was 677.2 x10_4/ul, the Ret (72 h, time 3 day) was 3.5% and the WBC (72 h, time 3 day) was 86 x10_2/uL. It also gave a KIDNEY_L (72 h, time 3 day) of 0.9 g, a KIDNEY_R (72 h, time 3 day) of 0.9 g and a KIDNEY_TOTAL (72 h, time 3 day) of 1.8 g. It also gave an LIVER (72 h, time 3 day) of 12.3 g, an A/G (72 h, time 3 day) of 1.7 and an ALP (72 h, time 3 day) of 1049 IU/L. For the same compound, the ALT (72 h, time 3 day) was 35.4 IU/L, the AST (72 h, time 3 day) was 54.2 IU/L and the BUN (72 h, time 3 day) was 13.2 mg/dL. For the same compound, the CRE (72 h, time 3 day) was 0.5 mg/dL, the Ca (72 h, time 3 day) was 10.5 mg/dL and the Cl (72 h, time 3 day) was 103.4 meq/L. For the same compound, the DBIL (72 h, time 3 day) was 0.1 mg/dL, the GLC (72 h, time 3 day) was 203.2 mg/dL and the IP (72 h, time 3 day) was 7.7 mg/dL. The K (72 h, time 3 day) was 3.4 meq/L, the LDH (72 h, time 3 day) was 196.2 IU/L and the Na (72 h, time 3 day) was 141 meq/L. It also gave a PL (72 h, time 3 day) of 185.2 mg/dL, an RALB (72 h, time 3 day) of 3.6 g/dL and a TBIL (72 h, time 3 day) of 0.2 mg/dL. For the same compound, the TC (72 h, time 3 day) was 113.2 mg/dL, the TG (72 h, time 3 day) was 77.8 mg/dL and the TP (72 h, time 3 day) was 5.7 g/dL. For the same compound, the gamma-GTP (72 h, time 3 day) was 1.4 IU/L, the TERMINAL_BW ([…], time 7 day) was 233.5 g and the TERMINAL_BW ([…], time 14 day) was 269.7 g. It also gave a TERMINAL_BW ([…], time 28 day) of 325.6 g, an APTT ([…], time 7 day) of 18.2 s and a Bas ([…], time 7 day) of 0%. It also gave an Eos ([…], time 7 day) of 1%, a Fbg ([…], time 7 day) of 224.6 mg/dL and a Hb ([…], time 7 day) of 13.5 g/dL. For the same compound, the Ht ([…], time 7 day) was 40.3%, the Lym ([…], time 7 day) was 81% and the MCH ([…], time 7 day) was 20.7 pg. It also gave an MCHC ([…], time 7 day) of 33.4%, an MCV ([…], time 7 day) of 62 fL and a Mono ([…], time 7 day) of 2.8%. For the same compound, the Neu ([…], time 7 day) was 14.6%, the PT ([…], time 7 day) was 12.6 s and the Plat ([…], time 7 day) was 123.7 x10_4/uL. It also gave an RBC ([…], time 7 day) of 651 x10_4/ul, a Ret ([…], time 7 day) of 4.3% and a WBC ([…], time 7 day) of 111.1 x10_2/uL. For the same compound, the APTT ([…], time 14 day) was 18.9 s, the Bas ([…], time 14 day) was 0% and the Eos ([…], time 14 day) was 1%. For the same compound, the Fbg ([…], time 14 day) was 228.2 mg/dL, the Hb ([…], time 14 day) was 13.9 g/dL and the Ht ([…], time 14 day) was 41.5%. It also gave a Lym ([…], time 14 day) of 79.4%, an MCH ([…], time 14 day) of 19.9 pg and an MCHC ([…], time 14 day) of 33.6%. It also gave an MCV ([…], time 14 day) of 59.3 fL, a Mono ([…], time 14 day) of 3.2% and a Neu ([…], time 14 day) of 15.2%. For the same compound, the PT ([…], time 14 day) was 12.9 s, the Plat ([…], time 14 day) was 115.7 x10_4/uL and the RBC ([…], time 14 day) was 699.6 x10_4/ul. The Ret ([…], time 14 day) was 4.5%, the WBC ([…], time 14 day) was 115.1 x10_2/uL and the APTT ([…], time 28 day) was 18.2 s. It also gave a Bas ([…], time 28 day) of 0%, an Eos ([…], time 28 day) of 1.2% and a Fbg ([…], time 28 day) of 237 mg/dL. It also gave a Hb ([…], time 28 day) of 13.7 g/dL, a Ht ([…], time 28 day) of 39.9% and a Lym ([…], time 28 day) of 81.6%. The MCH ([…], time 28 day) was 19.5 pg, the MCHC ([…], time 28 day) was 34.3% and the MCV ([…], time 28 day) was 56.9 fL. It also gave a Mono ([…], time 28 day) of 2.6%, a Neu ([…], time 28 day) of 13.6% and a PT ([…], time 28 day) of 12.8 s. It also gave a Plat ([…], time 28 day) of 98 x10_4/uL, an RBC ([…], time 28 day) of 700.6 x10_4/ul and a Ret ([…], time 28 day) of 3.7%. The WBC ([…], time 28 day) was 112 x10_2/uL, the KIDNEY_L ([…], time 7 day) was 1 g and the KIDNEY_R ([…], time 7 day) was 1 g. It also gave a KIDNEY_TOTAL ([…], time 7 day) of 2 g, a KIDNEY_L ([…], time 14 day) of 1.1 g and a KIDNEY_R ([…], time 14 day) of 1.2 g. It also gave a KIDNEY_TOTAL ([…], time 14 day) of 2.2 g, a KIDNEY_L ([…], time 28 day) of 1.1 g and a KIDNEY_R ([…], time 28 day) of 1.2 g. For the same compound, the KIDNEY_TOTAL ([…], time 28 day) was 2.3 g, the LIVER ([…], time 7 day) was 15.7 g and the LIVER ([…], time 14 day) was 16.8 g. The LIVER ([…], time 28 day) was 20 g, the A/G ([…], time 7 day) was 1.5 and the ALP ([…], time 7 day) was 797.6 IU/L. For the same compound, the ALT ([…], time 7 day) was 32.8 IU/L, the AST ([…], time 7 day) was 46 IU/L and the BUN ([…], time 7 day) was 16 mg/dL. It also gave a CRE ([…], time 7 day) of 0.4 mg/dL, a Ca ([…], time 7 day) of 10.7 mg/dL and a Cl ([…], time 7 day) of 102.8 meq/L. For the same compound, the DBIL ([…], time 7 day) was 0.086 mg/dL, the GLC ([…], time 7 day) was 199.8 mg/dL and the IP ([…], time 7 day) was 7.1 mg/dL. For the same compound, the K ([…], time 7 day) was 3.5 meq/L, the LDH ([…], time 7 day) was 177.8 IU/L and the Na ([…], time 7 day) was 140.6 meq/L. For the same compound, the PL ([…], time 7 day) was 186.8 mg/dL, the RALB ([…], time 7 day) was 3.7 g/dL and the TBIL ([…], time 7 day) was 0.2 mg/dL. For the same compound, the TC ([…], time 7 day) was 110.6 mg/dL, the TG ([…], time 7 day) was 42.6 mg/dL and the TP ([…], time 7 day) was 6.2 g/dL. For the same compound, the gamma-GTP ([…], time 7 day) was 2 IU/L, the A/G ([…], time 14 day) was 1.7 and the ALP ([…], time 14 day) was 726.8 IU/L. For the same compound, the ALT ([…], time 14 day) was 31 IU/L, the AST ([…], time 14 day) was 47.4 IU/L and the BUN ([…], time 14 day) was 15 mg/dL. For the same compound, the CRE ([…], time 14 day) was 0.5 mg/dL, the Ca ([…], time 14 day) was 10.5 mg/dL and the Cl ([…], time 14 day) was 103.4 meq/L. The DBIL ([…], time 14 day) was 0.096 mg/dL, the GLC ([…], time 14 day) was 181.2 mg/dL and the IP ([…], time 14 day) was 6.3 mg/dL. The K ([…], time 14 day) was 3.8 meq/L, the LDH ([…], time 14 day) was 173.8 IU/L and the Na ([…], time 14 day) was 140.4 meq/L. It also gave a PL ([…], time 14 day) of 168.8 mg/dL, an RALB ([…], time 14 day) of 3.8 g/dL and a TBIL ([…], time 14 day) of 0.2 mg/dL. For the same compound, the TC ([…], time 14 day) was 104.4 mg/dL, the TG ([…], time 14 day) was 32.2 mg/dL and the TP ([…], time 14 day) was 6 g/dL. For the same compound, the gamma-GTP ([…], time 14 day) was 2.8 IU/L, the A/G ([…], time 28 day) was 1.8 and the ALP ([…], time 28 day) was 642.2 IU/L. The ALT ([…], time 28 day) was 29.2 IU/L, the AST ([…], time 28 day) was 45.2 IU/L and the BUN ([…], time 28 day) was 16.4 mg/dL. The CRE ([…], time 28 day) was 0.5 mg/dL, the Ca ([…], time 28 day) was 10.7 mg/dL and the Cl ([…], time 28 day) was 104 meq/L. It also gave a DBIL ([…], time 28 day) of 0.1 mg/dL, a GLC ([…], time 28 day) of 204.4 mg/dL and an IP ([…], time 28 day) of 7.6 mg/dL. For the same compound, the K ([…], time 28 day) was 3.7 meq/L, the LDH ([…], time 28 day) was 110.8 IU/L and the Na ([…], time 28 day) was 141.8 meq/L. For the same compound, the PL ([…], time 28 day) was 167.4 mg/dL, the RALB ([…], time 28 day) was 4.3 g/dL and the TBIL ([…], time 28 day) was 0.2 mg/dL. The TC ([…], time 28 day) was 97.4 mg/dL, the TG ([…], time 28 day) was 26.6 mg/dL and the TP ([…], time 28 day) was 6.8 g/dL. For the same compound, the gamma-GTP ([…], time 28 day) was 1.8 IU/L.

Source: ChEMBL document CHEMBL3885861, “Open TG-GATES”
